# Assay results taken from PMC9587079, “Bioavailability of inhaled or ingested PFOA adsorbed to house dust” (Environmental Science and Pollution Research International, 2022).
# “Also recorded” adds a separate entry of the source. Where two headings read alike, the source gives them in different places.
# Assays:
# [1] = PFOA in plasma over time after inhalation or gavage of PFOA-coated house dust; assay type: in vivo, rat; details: for Cmax: male, RccHan:WIST, rat, plasma
# [2] = PFOA in terminal plasma, lung lavage and tissues 48 h after dust exposure; assay type: in vivo, rat; details: for Kp at 48 h / concentration at 48 h: male, RccHan:WIST, rat
# [3] = Extractable organofluorine (EOF) and fluorine mass balance in plasma and tissues at 48 h; assay type: in vivo, rat; details: for concentration at 48 h: male, RccHan:WIST, rat, read-out: PFOA-fluorine equivalent
# Procedure: Plasma and tissue samples taken at 48 h after exposure were subjected to EOF analysis. Extraction procedure followed the procedure described above with the exception that no mass labelled internal standards were spiked to the samples before extraction. The EOF content of the 1 mL extract was analyzed by combustion ion chromatography (CIC). Part of the extract (200 μL) was transferred to a LC vial with the addition of 10 μL of mass-labelled standards; after that, aqueous ammonium acetate (2 mM, 300 μL) was added to the vial for PFAS analysis using LC-MS/MS. The reported EOF concentrations as well as the concentration of PFOA for mass balance analysis were not recovery-corrected.
# Levels of EOF in the sample extracts were determined with a combustion ion chromatography (CIC) system consisting of a combustion module (Analytik Jena, Germany), a 920 Absorber Module and a 930 Compact IC Flex ion chromatograph module (both from Metrohm, Switzerland). An ion exchange column (Metrosep A Supp 5–150/4.0), with carbonate buffer (64 mmol/L sodium carbonate and 20 mmol/L sodium bicarbonate) as the mobile phase, was used for the separation of anions; the absorber solution was water. The sample extract (100 μL) was set on a silica boat via an autosampler and placed into a furnace at 900–1000 °C. The combustion of the sample in the furnace converted organic fluorine and inorganic fluorine into hydrogen fluoride (HF), which was then trapped by MilliQ water. The fluoride concentration in the solution was analyzed using ion chromatography. […] Quantification was based on external calibration. The analytical conditions for ion chromatography have been reported elsewhere (Kärrman et al. [2021]).
# The measured PFOA concentration (ng/mL) in the sample extract of the EOF analysis was converted to the corresponding fluoride-equivalent concentration (ng/mL F) using the following formula:1 CFPFAS=CPFAS*NF*AF/MWPFAS where CPFAS is the concentration of the target compound (i.e., PFOA), NF is the number of fluorine atoms in the target compound (i.e., 15), AF is the atomic weight of fluorine (g/mol, i.e., 19), and MWPFAS is the molecular weight of the target compound (i.e., 413). The sum of known extractable fluorine concentration (ΣCF_PFAS) was calculated by summing the fluorine concentrations from all individual PFASs. Values below limits of quantification (LOQ) were set for calculating ΣCF_PFAS. Levels of unidentified organofluorine were calculated by subtracting […], which in this present study only PFOA.
# [4] = Vapor concentration of PFOA at outlet of vapor generation chamber; assay type: physicochemical; details: room temperature, after 24 h
# Procedure: The gas phase of PFOA was collected with OSHA Versatile Sampling (OVS) tubes with XAD-2 resin (SKC). Samples were collected at a flowrate of 0.04 L/min using vacuum sampling pumps. Collection times were set for 5 min typically for a 200 mL air sample. PFOA from the OVS sampler was extracted prior to analysis into two fractions with each fraction placed into individual PP tubes. Fraction A consisted of the glass or quartz fiber filter and first section of XAD resin beads and the first polyurethane foam (PUF) filter. Fraction B consisted of the second section of XAD resin beads and the back PUF filter. All samples were spiked with 50 μL of 1 μg/mL C13 solution, the surrogate standard. Each section was placed in PP tube to which 5 mL of HPLC-grade methanol was added. The tube was shaken for 60 min on a mechanical flatbed shaker set at ∼2 cycles per second. Approximately 4.5 mL of each extract was transferred to a pre-baked amber glass vial by filtering through a Gelman GHP Acrodisc (Pall Gelman Laboratory, Ann Arbor, MI, USA.). Each extract of consisting of 200 μL was transferred to an autosampler vial with PP insert. […]
# The vapor concentration of PFOA (Cpfoa) measured at the outlet of the vapor pressure generation chamber is described in detail in Supplementary Information and shown in Fig. S1. […]
# [5] = cited from earlier work
# albumin in serum = system: albumin in serum; design: method as in Han et al. [2003]; details: ref Han et al. [2003]; cited from earlier work
# [6] = design: method as in Iwabuchi et al. [2017]; details: oral 100 μg/kg bw, male rats, ref Iwabuchi et al. [2017], cited from earlier work
smiles,measurement,setting,value
"O=C(O)C(F)(F)C(F)(F)C(F)(F)C(F)(F)C(F)(F)C(F)(F)C(F)(F)F [PFOA, Perfluorooctanoic acid]",Cmax,"[1]; inhaled or intranasal, inhalation group, n = 4, 164 μg PFOA/kg BW",3100 ± 320 ng/mL
same,Cmax,"[1]; oral gavage group, n = 4, 364 μg PFOA/kg BW",1730 ± 170 ng/mL
same,Time of Cmax post exposure,[1]; oral gavage group,3 h
same,"Plasma PFOA (Cmax, 3 h) following inhalation compared to oral exposure",[1]; same deposition level of exposure,almost four times higher; also recorded: approximately four times higher
same,Liver:plasma ratio of PFOA concentration,"[2]; 48 h, inhalation",5.28 ± 1.3
same,Kidney:plasma ratio of PFOA concentration,"[2]; 48 h, oral gavage",1.72 ± 0.3
same,Liver:plasma ratio of PFOA concentration,"[2]; 48 h, oral gavage",4.89 ± 1.0
same,"Levels of PFOA in plasma, liver and kidney, inhalation compared to oral",[2]; 48 h post exposure,twice as high
same,PFOA concentration,"[2]; kidney, 48 h, inhalation",3.84 ± 0.8 µg/g
same,PFOA concentration,"[2]; kidney, 48 h, oral gavage",3.15 ± 0.2 µg/g
same,PFOA concentration,"[2]; liver, 48 h, inhalation",10.1 ± 0.9 µg/g
same,PFOA concentration,"[2]; liver, 48 h, oral gavage",8.94 ± 0.5 µg/g
same,PFOA concentration,"[2]; lung, 48 h, inhalation",31.3 ± 4.0 µg/g
same,PFOA concentration,"[2]; lung, 48 h, oral gavage",1.68 ± 0.3 µg/g
same,Kp at 48 h,"[2]; kidney, 364 μg PFOA/kg BW, 48 h, oral gavage, read-out: Kidney:plasma ratio of PFOA concentration",1.72
same,concentration at 48 h,"[2]; kidney, inhaled, 164 μg PFOA/kg BW, kidney, 48 h, inhalation",3840 ± 760 ng/g
same,Kp at 48 h,"[2]; kidney, inhaled, 164 μg PFOA/kg BW, 48 h, inhalation, read-out: Kidney:plasma ratio of PFOA concentration",2.02 ± 0.7
same,concentration at 48 h,"[2]; kidney, po, 364 μg PFOA/kg BW, kidney, 48 h, oral gavage",3150 ± 190 ng/g
same,Kp at 48 h,"[2]; liver, 364 μg PFOA/kg BW, 48 h, oral gavage, read-out: Liver:plasma ratio of PFOA concentration",4.89
same,concentration at 48 h,"[2]; liver, inhaled, 164 μg PFOA/kg BW, liver, 48 h, inhalation",10100 ± 880 ng/g
same,Kp at 48 h,"[2]; liver, inhaled, 164 μg PFOA/kg BW, 48 h, inhalation, read-out: Liver:plasma ratio of PFOA concentration",5.28
same,concentration at 48 h,"[2]; liver, po, 364 μg PFOA/kg BW, liver, 48 h, oral gavage",8940 ± 500 ng/g
same,concentration at 48 h,"[2]; lung lavage (BALF), inhaled, 164 μg PFOA/kg BW, lung lavage, 48 h, inhalation",9980 ± 630 ng/mL
same,concentration at 48 h,"[2]; lung lavage (BALF), po, 364 μg PFOA/kg BW, lung lavage, 48 h, oral gavage",310 ± 20 ng/mL
same,concentration at 48 h,"[2]; lung, inhaled, 164 μg PFOA/kg BW, lung, 48 h, inhalation",31300 ± 4000 ng/g
same,concentration at 48 h,"[2]; lung, po, 364 μg PFOA/kg BW, lung, 48 h, oral gavage",1680 ± 310 ng/g
same,concentration at 48 h,"[2]; plasma, inhaled, 164 μg PFOA/kg BW, terminal plasma, 48 h, inhalation of PFOA-coated dust (164 μg PFOA/kg BW)",2030 ± 320 ng/mL
same,concentration at 48 h,"[2]; plasma, po, 364 μg PFOA/kg BW, terminal plasma, 48 h, oral gavage of PFOA-coated dust (364 μg PFOA/kg BW)",1870 ± 350 ng/mL
same,"Distribution of PFOA to liver and kidney, inhalation compared to oral gavage",[2]; post exposure,~2.5 times
same,PFOA concentration,"[2]; terminal plasma, 48 h, inhalation of PFOA-coated dust (164 μg PFOA/kg BW)",1.97 ± 0.32 ng/µL
same,Proportion of PFOA to EOF in plasma,[3]; both exposure groups,65–71%
same,Contribution to EOF (%),"[3]; kidney, inhalation",81%
same,Contribution to EOF (%),"[3]; kidney, oral",83%
same,Contribution to EOF (%),"[3]; liver, inhalation",87%
same,Contribution to EOF (%),"[3]; liver, oral",83%
same,Contribution to EOF (%),"[3]; lung lavage, inhalation",76%
same,Contribution to EOF (%),"[3]; lung lavage, oral",84%
same,Contribution to EOF (%),"[3]; lung, inhalation",86%
same,Contribution to EOF (%),"[3]; lung, oral",74%
same,concentration at 48 h,"[3]; 364 μg PFOA/kg BW, kidney, oral",2160 ± 130 ng/g
same,concentration at 48 h,"[3]; 364 μg PFOA/kg BW, liver, oral",6140 ± 340 ng/g
same,concentration at 48 h,"[3]; 364 μg PFOA/kg BW, lung, oral",1160 ± 210 ng/g
same,concentration at 48 h,"[3]; 364 μg PFOA/kg BW, plasma, oral, not recovery-corrected",1420 ± 240 ng/mL
same,concentration at 48 h,"[3]; inhaled, 164 μg PFOA/kg BW, kidney, inhalation",2640 ± 530 ng/g
same,concentration at 48 h,"[3]; inhaled, 164 μg PFOA/kg BW, liver, inhalation",6950 ± 650 ng/g
same,concentration at 48 h,"[3]; inhaled, 164 μg PFOA/kg BW, lung, inhalation",21500 ± 2750 ng/g
same,concentration at 48 h,"[3]; inhaled, 164 μg PFOA/kg BW, plasma, inhalation, not recovery-corrected",1530 ± 170 ng/mL
same,concentration at 48 h,"[3]; lung lavage (BALF), 364 μg PFOA/kg BW, lung lavage, oral",210 ± 20 ng/mL
same,concentration at 48 h,"[3]; lung lavage (BALF), inhaled, 164 μg PFOA/kg BW, lung lavage, inhalation",6870 ± 430 ng/mL
same,"Share of EOF levels explained by measured PFOA, all samples",[3]; plasma and tissues,65–87%
same,Contribution to EOF (%),"[3]; plasma, oral",65%
same,Stable (saturation) vapor concentration of PFOA,[4],1.37e-05 µg/L
same,Absorption over the gastrointestinal tract,"[5]; oral exposure in animal studies, ammonium salt: APFO, ref DeWitt. [2015]",virtually all of it was absorbed
same,Delivered dose absorbed over the gastro intestinal,"[5]; oral exposure, ref US EPA [2016], Pizzurro et al. [2019], DeWitt. [2015]",more than 90%
same,PFOA bound to albumin in serum,albumin in serum,more than 90%
same,Liver to serum ratio,[6]; at Cmax (12 h),1.67
same,Kidney to serum ratio,[6],0.82
